US6789546B2, “Filters for preventing or reducing tobacco smoke-associated injury in the aerodigestive tract of a subject” (Technion Research & Development Foundation Ltd., priority 2001, dated 2004)
One block for each molecule: values may come before it.

Columns and labels:
oral peroxidase (OPO) [1] = type: biochemical, human; conditions: for OPO activity in the presence of aldehydes: 2 mM acetylaldehyde, 80 μM acrolein, 20 μM crotonaldehyde, TS-treated saliva
oral peroxidase (OPO) [2] = assay: OPO activity in saliva exposed in vitro to tobacco smoke (NBS-SCN assay); type: biochemical, human
lymphocytes [3] = assay: Lymphocyte survival by Trypan Blue exclusion assay; type: cell-based, human
Method: Saliva Collection: Saliva was collected from healthy subjects, 3 males and 3 females ranging from 21-47 years of age, under non-stimulatory conditions in a quiet room during the morning between 8 am and noon. Saliva collection was performed at least 1 h after eating by spitting into a recipient for 10 minutes, as previously described (43). Following collection, saliva was immediately centrifuged at 800×g for 10 min at 4° C. to remove cells and cell debris and the resulting supernatant was used for biochemical analyses.
(§1) Lymphocyte Isolation: Blood from 10 consenting, healthy, non-smoking subjects, 5 males and 5 females ranging from 18-55 years of age, was drawn into EDTA-containing vacutainers. Lymphocytes were isolated by Ficoll-Hypaque (Sigma) gradient centrifugation according to the manufacturer's instructions and lymphocytes were suspended at 10^7 cells/ml PBS (Beit-Ha'emek Industries, Israel), and used immediately in experiments.
(§2) A reproducible vacuum was created in the flask and upon application of vacuum for 5 s, 80-100 ml of TS from the lit cigarette was drawn into the flask. […] Saliva treatment of lymphocytes was performed by suspending these in PBS supplemented with 30% (v/v) saliva. Following treatment with the TS of 0.5 cigarettes, flasks were incubated at 37° C. for 20 min in a metabolic shaker and subjected to a further 4 treatments with TS, as described above.
Measurement of Lymphocyte Survival: Lymphocyte viability was assessed by Trypan Blue exclusion assay.

lymphocytes [4] = assay: Western immunoblotting analysis of lymphocyte protein carbonylation; type: cell-based, human
Text: Western Immunoblotting Analysis of Protein Carbonylation: Salivary proteins were separated by SDS-PAGE using a 10% gel and electro-blotted onto nitrocellulose membranes, as previously described (14). The Oxyblot Kit (Intergen Co, Purchase N.Y.) was used with anti-dinitrophenyhydrazine (DNPH) antibodies to label carbonylated proteins. Protein carbonylation levels were then visualized by reacting labelled blots with a secondary HRP-conjugated anti-rabbit antibody followed by ECL detection of secondarily labelled proteins, as previously described (14).
as §1
as §2, with “Treatment of Lymphocytes With TS in the Presence of Saliva: Exposure of lymphocytes to TS was carried out by attaching a Time cigarette (capable of removing particles>[…] in diameter) in which the filter tip was removed to a Cambridge filter which was combined with a vacuum system to aspirate gas-phase TS inside sealed 250 ml flasks containing lymphocytes suspended in 12-15 ml PBS, as previously described (14, 15). A” for “A”
Western Immunoblotting Analysis of Lymphocyte Protein Carbonylation: Lymphocytes were washed twice in PBS following treatment by centrifugation at 2,000 rpm for 2 minutes to remove saliva and other components of the incubation medium. Lymphocytes were then centrifuged at 14,000 rpm for 1 minute and lysed by sonication for 10 seconds in lysis buffer containing 20 mM Tris pH 7.4, 1 mM EGTA, 1 mM PMSF, 50 μM NaVO4 and 50 mM NaF. Lysates were centrifuged at 14,000 rpm for 1 minute and supernatants were harvested for analysis. Carbonylation analysis was performed as described above.

MPO = biological target: T1, MPO (Homo sapiens, UniProt P05164); assay: Control MPO activity (commercial MPO) in the presence of dapsone; type: biochemical; conditions: 150 μM dapsone
T1 construct: purchased
T1 sequence (P05164 49-745): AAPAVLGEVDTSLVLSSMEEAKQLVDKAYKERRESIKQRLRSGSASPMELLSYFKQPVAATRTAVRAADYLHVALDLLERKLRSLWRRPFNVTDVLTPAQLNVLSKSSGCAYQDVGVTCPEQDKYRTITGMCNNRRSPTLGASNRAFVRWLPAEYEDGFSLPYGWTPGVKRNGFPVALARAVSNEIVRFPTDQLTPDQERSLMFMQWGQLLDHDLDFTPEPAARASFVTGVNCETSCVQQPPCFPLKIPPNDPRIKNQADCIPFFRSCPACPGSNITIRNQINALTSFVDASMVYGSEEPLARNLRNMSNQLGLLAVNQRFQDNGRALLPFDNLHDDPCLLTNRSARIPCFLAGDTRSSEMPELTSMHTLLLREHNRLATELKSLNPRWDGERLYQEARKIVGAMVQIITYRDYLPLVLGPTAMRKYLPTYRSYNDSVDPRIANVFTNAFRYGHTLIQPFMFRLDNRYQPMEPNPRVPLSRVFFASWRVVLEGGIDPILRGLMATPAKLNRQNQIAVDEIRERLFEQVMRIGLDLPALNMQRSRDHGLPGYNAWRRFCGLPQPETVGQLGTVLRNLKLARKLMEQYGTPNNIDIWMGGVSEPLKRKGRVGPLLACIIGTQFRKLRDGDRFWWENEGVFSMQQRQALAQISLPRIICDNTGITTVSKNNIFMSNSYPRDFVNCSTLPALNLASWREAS
Method: FIG. 7 is a data plot depicting the effect of increasing concentrations of dapsone (4-aminophenylsulfone) on OPO activity in TS-treated saliva. Abbreviations: NO.1, NO.2, NO.3, NO4 and NO.5 correspond to saliva from 5 different subjects and plasma corresponds to commercial MPO.
Analysis of OPO Activity: OPO activity was measured according to the 2-nitrobenzoic-thiocyanate (NBS-SCN) assay, as previously described (20). Briefly, DTNB is reduced to NBS by addition of β-mercaptoethanol and decreases in NBS concentration by reaction with OSCN^−, a product of OPO, are monitored spectrophotometrically by measuring absorbance at 412 nm at pH 5.6 (18). One unit of enzyme activity was defined as the activity required to cleave 1 μmol of NBS/min at 22° C., using a molar extinction coefficient of 12,800 (20).
Thus, in order to determine which of the MPO or SPO activity components of OPO activity are lost as a result of exposure to TS, OPO activity in TS-treated saliva was measured in the presence of increasing concentrations of 50-150 μM dapsone.

[5] = lymphocytes in PBS, 20 minutes, 80 μM acrolein, 20 μM crotonaldehyde or 2 mM acetaldehyde

Compound: [Cl][Fe]([Cl])[Cl] [FeCl3]
inhibition of OPO activity (oral peroxidase (OPO) [1]; saliva exposed 2 h to 1 mM ascorbate or 100 μM FeCl3): did not inhibit OPO activity

Compound: N[C@@H](CCC(=O)N[C@@H](CS)C(=O)NCC(=O)O)C(=O)O [GSH, L-γ-glutamyl-1-cysteine-glycine]
loss of OPO activity in TS-treated saliva in the presence or absence of the agent (oral peroxidase (OPO) [2]; 1 mM agent): similar
effect on death rate of lymphocytes exposed to TS and saliva (lymphocytes [3]): partially prevented
protection assessed by lymphocyte protein carbonylation levels (lymphocytes [4]; TS and saliva, 20 minutes, 1 mM agent (FIG. 20)): unique protection
protection from aldehyde-induced protein carbonylation (lymphocytes [4]; aldehydes + 1 mM GSH, 20 min (FIG. 21)): protection provided by GSH was similar

Compound: N#C[S-].[K+] [KSCN, potassium thiocyanate]
protection against TS-induced loss of OPO activity (oral peroxidase (OPO) [2]): significant protection against loss of OPO activity

Compound: CC(=O)N[C@@H](CS)C(=O)O [NAC, N-acetylcysteine]
effect on death rate of lymphocytes exposed to TS and saliva (lymphocytes [3]): did not alter the death rate

Compound: C/C1=C2/[N-][C@H]([C@H](CC(N)=O)[C@@]2(C)CCC(=O)NC[C@@H](C)OP(=O)([O-])O[C@H]2[C@@H](O)[C@@H](n3cnc4cc(C)c(C)cc43)O[C@@H]2CO)[C@]2(C)N=C(/C(C)=C3N=C(/C=C4N=C1[C@@H](CCC(N)=O)C\4(C)C)[C@@H](CCC(N)=O)[C@]\3(C)CC(N)=O)[C@@H](CCC(N)=O)[C@]2(C)CC(N)=O.[Co+3].[OH-] [OH—CO, hydroxocobalamin]
prevention of loss of OPO activity in saliva (oral peroxidase (OPO) [2]; increasing amounts of OH—CO (0.5, 1, 2 mM, FIG. 14), 40 min after treatment with TS): prevent, to a significant extent
prevention of loss of OPO activity by preincubation (oral peroxidase (OPO) [2]; preincubation of saliva with OH—CO, TS or KCN): could prevent both TS- and KCN-associated loss of OPO activity
prevention of KCN-associated loss of OPO activity (oral peroxidase (OPO) [1]; 1 mM OH—CO, saliva treated 2 min with 1 mM KCN): completely prevent

Compound: CC=O [acetaldehyde]
OPO activity in the presence of aldehydes (oral peroxidase (OPO) [1]): unaffected
death rates (lymphocytes [3]; both, human): 92.7%

Compound: C=CC=O [acrolein]
OPO activity in the presence of aldehydes (oral peroxidase (OPO) [1]): unaffected
survival rates (lymphocytes [3]; acrolein, first value of 'respectively' (taken as without saliva), time not given): 57.9%
survival rates (lymphocytes [3]; acrolein, second value of 'respectively' (taken as with saliva), time not given): 66.4%
survival rates (lymphocytes [3]; [5]): 63.3%
death rates (lymphocytes [3]; lymphocytes in PBS, 80 minutes, 80 μM acrolein, 20 μM crotonaldehyde or 2 mM acetaldehyde): 57.3%
lymphocyte protein carbonylation levels (lymphocytes [4]; acrolein with saliva versus acrolein alone (FIG. 22: 80 μM, 20 min)): did not enhance carbonylation levels

Compound: O=C1O[C@H]([C@@H](O)CO)C(O)=C1O [ascorbate]
lymphocyte survival rate (lymphocytes [3]; ascorbate (1 mM) added to PBS containing FeCl3 (90 μM), no saliva, 20 min (FIG. 23 column 8)): 77%
lymphocyte survival rate (lymphocytes [3]; ascorbate (1 mM) added to saliva-containing medium without exposure to TS, 20 min (FIG. 23 column 6)): 78%

Compound: C/C=C/C=O [crotonaldehyde]
OPO activity in the presence of aldehydes (oral peroxidase (OPO) [1]): unaffected
death rates (lymphocytes [3]; both, human): 75.3%
survival rates (lymphocytes [3]; [5]): 80.3%

loss of OPO activity in the presence or absence of the agent (oral peroxidase (OPO) [2]; TS-treated saliva containing ~40% MPO, 150 μM dapsone): similar
Loss of OPO activity (oral peroxidase (OPO) [2]; TS-treated saliva in the presence of 150 μM dapsone): 60-85%
control MPO activity (MPO): unaffected
Compound: Nc1ccc(S(=O)(=O)c2ccc(N)cc2)cc1 [dapsone, 4-aminophenylsulfone]

Compound: CC(=O)N(O)CCCCCNC(=O)CCC(=O)N(O)CCCCCNC(=O)CCC(=O)N(O)CCCCCN [deferoxamine]
lymphocyte survival rate (lymphocytes [3]; TS and saliva treatment, 80 minutes, 1 mM agent): 23.7%

Compound: O=c1[nH]c(=O)c2[nH]c(=O)[nH]c2[nH]1 [uric acid]
lymphocyte protein carbonylation levels (lymphocytes [4]; uric acid added to suspension medium instead of saliva (10 or 100 μM, FIG. 18), no TS): reduced carbonylation levels
